Test results as given in ChEMBL document CHEMBL4732223, “Prenylated flavonoids from Ficus hirta induces HeLa cells apoptosis via MAPK and AKT signaling pathways” (Bioorg Med Chem Lett, 2021).
Activity calls are given as the source filed them. No cut-off for these calls is given here.

Tests used:
[1] = system: HeLa; assay: Cytotoxicity against human HeLa cells assessed as inhibition of cell proliferation by MTT assay; format: functional, cell-based
[2] = system: MCF7; assay: Cytotoxicity against human MCF7 cells assessed as inhibition of cell proliferation by MTT assay; format: functional, cell-based
[3] = system: HepG2; assay: Cytotoxicity against human HepG2 cells assessed as inhibition of cell proliferation by MTT assay; format: functional, cell-based
[4] = system: NCI-H460; assay: Cytotoxicity against human NCI-H460 cells assessed as inhibition of cell proliferation by MTT assay; format: functional, cell-based
[5] = Induction of apoptotis in human HeLa cells assessed as live cells at 10 uM measured after 24 hrs by FITC/propidium iodide staining based flow cytometry (reference value: 89.2 %); format: functional
[6] = Induction of apoptotis in human HeLa cells assessed as early apoptotic cells at 10 uM measured after 24 hrs by FITC/propidium iodide staining based flow cytometry (reference value: 5.46 %); format: functional
[7] = Induction of apoptotis in human HeLa cells assessed as late apoptotic cells at 10 uM measured after 24 hrs by FITC/propidium iodide staining based flow cytometry (reference value: 2.74 %); format: functional
[8] = Induction of apoptotis in human HeLa cells assessed as necrotic cells at 10 uM measured after 24 hrs by FITC/propidium iodide staining based flow cytometry (reference value: 2.59 %); format: functional
[9] = Induction of apoptotis in human HeLa cells assessed as live cells at 20 uM measured after 24 hrs by FITC/propidium iodide staining based flow cytometry (reference value: 89.2 %); format: functional
[10] = Induction of apoptotis in human HeLa cells assessed as early apoptotic cells at 20 uM measured after 24 hrs by FITC/propidium iodide staining based flow cytometry (reference value: 5.46 %); format: functional
[11] = Induction of apoptotis in human HeLa cells assessed as late apoptotic cells at 20 uM measured after 24 hrs by FITC/propidium iodide staining based flow cytometry (reference value: 2.74 %); format: functional
[12] = Induction of apoptotis in human HeLa cells assessed as necrotic cells at 20 uM measured after 24 hrs by FITC/propidium iodide staining based flow cytometry (reference value: 2.59 %); format: functional
[13] = Induction of apoptotis in human HeLa cells assessed as live cells at 30 uM measured after 24 hrs by FITC/propidium iodide staining based flow cytometry (reference value: 89.2 %); format: functional
[14] = Induction of apoptotis in human HeLa cells assessed as early apoptotic cells at 30 uM measured after 24 hrs by FITC/propidium iodide staining based flow cytometry (reference value: 5.46 %); format: functional
[15] = Induction of apoptotis in human HeLa cells assessed as late apoptotic cells at 30 uM measured after 24 hrs by FITC/propidium iodide staining based flow cytometry (reference value: 2.74 %); format: functional
[16] = Induction of apoptotis in human HeLa cells assessed as necrotic cells at 30 uM measured after 24 hrs by FITC/propidium iodide staining based flow cytometry (reference value: 2.59 %); format: functional
[17] = Induction of apoptotis in human HeLa cells assessed as live cells at 40 uM measured after 24 hrs by FITC/propidium iodide staining based flow cytometry (reference value: 89.2 %); format: functional
[18] = Induction of apoptotis in human HeLa cells assessed as early apoptotic cells at 40 uM measured after 24 hrs by FITC/propidium iodide staining based flow cytometry (reference value: 5.46 %); format: functional
[19] = Induction of apoptotis in human HeLa cells assessed as late apoptotic cells at 40 uM measured after 24 hrs by FITC/propidium iodide staining based flow cytometry (reference value: 2.74 %); format: functional
[20] = Induction of apoptotis in human HeLa cells assessed as necrotic cells at 40 uM measured after 24 hrs by FITC/propidium iodide staining based flow cytometry (reference value: 2.59 %); format: functional
[21] = system: HeLa; assay: Induction of apoptosis in human HeLa cells assessed as increase in PARP cleavage measured after 24 hrs by Western blot analysis; format: functional, cell-based; conditions: dose 10-30 µM
[22] = system: HeLa; assay: Activation of MAPK signaling pathway in human HeLa cells assessed as increase in phosphorylated JNK protein level at 30 uM measured after 24 hrs by Western blot analysis; format: cell-based; conditions: filed as activator
[23] = system: HeLa; assay: Activation of MAPK signaling pathway in human HeLa cells assessed as increase in phosphorylated p38 protein level at 30 uM measured after 24 hrs by Western blot analysis; format: cell-based; conditions: filed as activator
[24] = system: HeLa; assay: Activation of MAPK signaling pathway in human HeLa cells assessed as reduction in phosphorylated ERK expression measured after 24 hrs by Western blot analysis; format: cell-based; conditions: filed as activator, dose 10-30 µM
[25] = biological target: Serine/threonine-protein kinase AKT (Homo sapiens) (UniProt P31751+Q9Y243+P31749); assay: […] of AKT signaling pathway in human HeLa cells assessed as reduction in phosphorylated AKT expression measured after 24 hrs by Western blot analysis; format: cell-based; conditions: dose 10-30 µM
Chain of Serine/threonine-protein kinase AKT (Homo sapiens) (P31749 whole entry, looked up): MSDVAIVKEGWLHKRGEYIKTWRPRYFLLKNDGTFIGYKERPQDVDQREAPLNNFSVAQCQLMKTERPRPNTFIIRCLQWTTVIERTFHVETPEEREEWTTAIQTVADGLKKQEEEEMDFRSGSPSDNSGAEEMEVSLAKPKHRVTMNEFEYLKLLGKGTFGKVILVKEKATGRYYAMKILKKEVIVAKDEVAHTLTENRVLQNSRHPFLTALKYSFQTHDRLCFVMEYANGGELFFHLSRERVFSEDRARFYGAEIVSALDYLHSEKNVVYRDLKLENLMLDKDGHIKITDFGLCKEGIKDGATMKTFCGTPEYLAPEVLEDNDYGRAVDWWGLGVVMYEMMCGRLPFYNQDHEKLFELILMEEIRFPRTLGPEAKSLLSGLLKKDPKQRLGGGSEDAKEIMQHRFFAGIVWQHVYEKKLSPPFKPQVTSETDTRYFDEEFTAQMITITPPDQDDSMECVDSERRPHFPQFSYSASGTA
Chain of Serine/threonine-protein kinase AKT (Homo sapiens) (P31751 whole entry, looked up): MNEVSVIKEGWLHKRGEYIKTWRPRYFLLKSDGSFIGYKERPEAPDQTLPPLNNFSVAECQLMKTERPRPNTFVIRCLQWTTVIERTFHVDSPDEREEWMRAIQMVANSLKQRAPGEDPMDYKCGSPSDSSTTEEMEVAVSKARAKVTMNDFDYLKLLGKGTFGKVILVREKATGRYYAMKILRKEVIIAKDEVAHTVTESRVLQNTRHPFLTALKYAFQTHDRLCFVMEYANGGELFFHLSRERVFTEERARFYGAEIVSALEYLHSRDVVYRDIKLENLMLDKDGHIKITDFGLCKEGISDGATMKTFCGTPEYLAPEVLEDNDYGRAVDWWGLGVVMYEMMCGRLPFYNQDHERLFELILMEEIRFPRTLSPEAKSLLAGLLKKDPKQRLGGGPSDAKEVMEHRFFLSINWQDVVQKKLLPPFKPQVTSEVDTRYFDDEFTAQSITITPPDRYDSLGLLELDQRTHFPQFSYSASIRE
Chain of Serine/threonine-protein kinase AKT (Homo sapiens) (Q9Y243 whole entry, looked up): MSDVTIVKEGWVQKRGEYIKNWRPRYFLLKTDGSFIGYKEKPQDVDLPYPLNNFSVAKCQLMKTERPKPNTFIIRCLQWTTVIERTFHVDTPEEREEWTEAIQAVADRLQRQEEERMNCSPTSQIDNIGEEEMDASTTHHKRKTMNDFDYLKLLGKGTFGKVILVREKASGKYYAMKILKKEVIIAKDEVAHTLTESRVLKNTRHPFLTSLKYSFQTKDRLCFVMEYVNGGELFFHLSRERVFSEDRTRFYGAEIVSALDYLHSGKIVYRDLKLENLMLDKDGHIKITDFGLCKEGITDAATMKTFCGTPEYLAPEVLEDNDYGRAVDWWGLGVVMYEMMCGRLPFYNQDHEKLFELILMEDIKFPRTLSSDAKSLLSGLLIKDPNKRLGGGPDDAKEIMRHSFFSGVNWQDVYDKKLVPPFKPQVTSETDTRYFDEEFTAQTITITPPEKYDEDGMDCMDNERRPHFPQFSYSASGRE

CC(C)=CCc1cc(-c2cc(=O)c3c(O)cc(O)cc3o2)ccc1O
IC50 [1]: > 40 µM | IC50 [2]: > 40 µM | IC50 [3]: > 40 µM | IC50 [4]: > 40 µM

CC(C)=CCc1c(O)cc2oc(-c3ccc(O)cc3)cc(=O)c2c1O
IC50 [1]: 28.9 µM | IC50 [2]: 32.4 µM | IC50 [3]: > 40 µM | IC50 [4]: 38.5 µM | Activity [5]: 88.2% | Activity [6]: 6.92% | Activity [7]: 4.11% | Activity [8]: 0.75% | Activity [9]: 87.6% | Activity [10]: 8.25% | Activity [11]: 3.23% | Activity [12]: 0.88% | Activity [13]: 86.5% | Activity [14]: 9.41% | Activity [15]: 3.4% | Activity [16]: 0.69% | Activity [17]: 82.6% | Activity [18]: 12.5% | Activity [19]: 4.28% | Activity [20]: 0.63% | Activity [21]: Dose-dependent effect | Activity [22]: Active | Activity [23]: Active | Activity [24]: Dose-dependent effect | Activity [25]: Dose-dependent effect

CC(C)=CCc1cc(-c2cc(=O)c3c(O)cc(O)cc3o2)cc(O)c1O
IC50 [1]: > 40 µM | IC50 [2]: > 40 µM | IC50 [3]: > 40 µM | IC50 [4]: > 40 µM

CC(C)=CCc1c(O)cc2oc(-c3ccc(O)c(O)c3)cc(=O)c2c1O
IC50 [1]: > 40 µM | IC50 [2]: > 40 µM | IC50 [3]: > 40 µM | IC50 [4]: > 40 µM

CC(C)=CCc1c(O)cc(O)c2c(=O)cc(-c3ccc(O)cc3)oc12
IC50 [1]: > 40 µM | IC50 [2]: > 40 µM | IC50 [3]: > 40 µM | IC50 [4]: > 40 µM

COc1c(CC=C(C)C)cc(C2CC(=O)c3c(O)cc(O)cc3O2)c(CC=C(C)C)c1OC (racemic)
IC50 [1]: > 40 µM | IC50 [2]: > 40 µM | IC50 [3]: > 40 µM | IC50 [4]: > 40 µM
